Experimental data published in patent US11912676B1, “N'-[(4-chlorobenzoyl)oxy]-1,3-benzothiazole-2-carboximidamide as an antitumor and antimicrobial compound” (KING FAISAL UNIVERSITY, priority 2023, dated 2024).

Experiments:
[1] = tested on: human prostate cancer cells (PC3); experiment: Cytotoxicity by SRB assay, PC3 cells; format: cell-based; conditions: 0.01 μM to 100 μM, 72 h
Method: (§1) The human prostate cancer cells (PC3) and human osteosarcoma cells (MG-63) were obtained from Nawah Scientific Inc. (Mokatam, Cairo, Egypt) and cultured in DMEM (Dulbecco's modified eagle's medium), Gibco, USA, supplemented with fetal bovine serum (FBS) at a concentration of 10% and 100 U/mL of penicillin and streptomycin (PS). The Cells were incubated at 37° C. in a humidified environment that contained 5% CO2. Cells were seeded in 96-well plates as aliquots of 100 μL cell suspension and incubated in a complete media for 24 h. afterward, cells were treated with N′-[(4-chlorobenzoyl)oxy]-1,3-benzothiazole-2-carboximidamide at diverse concentrations ranging from 0.01 μM to 100 μM for 72 h. Then, cells were fixed at 4° C. for one hour with 150 μL of 10% trichloroacetic acid (TCA). After washing the cells five times with distilled water, 70 μL of sulforhodamine (SRB) solution (0.4% w/v) was added and incubated for 10 min at room temperature in a dark place. […] Then, 150 μL of Tris pH 10.5 (10 mM) was added, and the absorbance was measured at 540 nm using a BMG LABTECH®--FLUOstar Omega microplate reader (Ortenberg, Germany). Half maximal inhibitory concentrations (IC50) values were calculated for each experiment using GraphPad Prism 6 software. […] The inhibition was calculated using the following equation: Inhibition %=100−Average Viability

[2] = tested on: human osteosarcoma cells (MG-63); experiment: Cytotoxicity by SRB assay, MG-63 cells; format: cell-based; conditions: 0.01 μM to 100 μM, 72 h
Method: as §1

- melting point: 160 to 162 °C
SMILES: N/C(Cc1nc2ccccc2s1)=N\OC(=O)c1ccc(Cl)cc1
- antiproliferative activity against PC3 cells [1]: excellent antiproliferative activities
- antiproliferative activity against MG-63 cells [2]: excellent antiproliferative activities
